The numbers were not newly measured in patent publication US9314429B2, “Rapidly dispersible dosage form of oxcarbazepine” (APRECIA PHARMACEUTICALS COMPANY, priority 2013, dated 2016), which cites them from elsewhere.

Structures are written as SMILES.

In the case of `NC(=O)N1c2ccccc2CC(=O)c2ccccc21` [OXC, 10,11-Dihydro-10-oxo-5H-dibenz[b,f]azepine-5-carboxamide], the water solubility entry is recorded as “poorly water soluble”.
